In brackets after ≈: the same amount, converted by molar mass. Several values for one entry are separate records, joined by “and”; a condition that tells them apart may be missing. Equal entries are not always repeated.
Tests used:
[1] = target: T1, actin (G-actin purified from rabbit skeletal muscle) (Oryctolagus cuniculus, UniProt P68135); test: Pyrene actin polymerization assay; assay type: biochemical; details: 2 μM compound, 2 μM actin (5% pyrene-actin), 550 nM actin seeds, after 30 min; control = 100%
T1 construct: 1.5 kg of fresh rabbit skeletal muscle was minced with a meat grinder; from tissue; host or cells: rabbit skeletal muscle (acetone powder)
Text: To rule out that the reduced in cellulo efficacies of 3–5 could instead be explained by an altered membrane permeability of modified compounds or their differential effects on other intracellular factors, pyrene actin polymerization assays[23] were used to analyze potential effects on actin assembly in vitro under defined conditions. Globular actin (G-actin) was purified from rabbit skeletal muscle[24] and fluorescently labeled with pyrene (see description in the Supporting Information). G-actin (2 μM) supplemented with 5% pyrene-labeled actin was added to actin seeds and the respective compound (2 μM) in polymerization buffer to initiate the reaction. Actin polymerization was then assessed by reading out the increasing pyrene fluorescence signal over time (Figure 3).
Acetone powder and G-actin were prepared as described previously.[24] Briefly, 1.5 kg of fresh rabbit skeletal muscle was minced with a meat grinder. Subsequently, the meat was stirred for 15 min in 2.5 L of high-salt buffer (0.5 M KCl, 0.1 M K2HPO4, 2 mM benzamidine, pH 6.4) and then pelleted at 4000g for 10 min. The supernatant was discarded, and the pellet was extracted once more with high-salt buffer and then washed twice with ice-cold ddH2O adjusting the slurry with 1 M Na2CO3 to pH 8.3 until a slight swelling of the pellet became visible. The pellet was then resuspended in ice-cold acetone, stirred for 15 min, and then centrifuged for 10 min at 4000g. The supernatant was discarded, and the pellet was washed once more with acetone before the pellet was broken up and dried in small pieces on aluminum foil under a fume hood overnight. The dried acetone powder was stored at −80 °C for further use.
For purification of G-actin, 5 g of the acetone powder was extracted five times with 50 mL of G-buffer containing 2 mM Tris-HCl, pH 8.0, 0.2 mM CaCl2, 0.5 mM DTT, 0.2 mM Na2ATP, and 0.1 mg/mL NaN3. After each step, the solution was filtered through a fine gauze, yielding a total volume of 250 mL. Subsequently, the solution was centrifuged for 30 min at 20,000g at 4 °C. Actin in the supernatant was then polymerized by addition of 25 × polymerization buffer (250 mM Tris-HCl pH 8.0, 1250 mM KCl, 25 mM Na2ATP, 50 mM MgCl2 × 6 H2O) overnight. Subsequently, KCl was added to a final concentration of 750 mM, followed by centrifugation of the solution at 150,000g at 4 °C for 3 h. The F-actin pellet was then homogenized with 25 mL of G-actin buffer using a potter and then dialyzed against G-buffer. After a final centrifugation step at 150,000g at 4 °C for 3 h, G-actin was purified by size exclusion chromatography using a HiLoad 26/75 Superdex 200 column. Actin concentrations were determined by measuring the absorbance at 290 nm and using an extinction coefficient of 26,600 M^–1 cm^–1.
For pyrene labeling, 10–20 mL of G-actin solution were dialyzed against labeling buffer following the procedure described by Doolittle et al.[38] […]
Pyrene assays were conducted to assess the inhibitory properties of cytochalasins on actin polymerization under defined conditions in vitro using G-actin and actin seeds. The degree of labeling was determined; EC290 nm actin: 26600 1/M × cm; EC342 nm pyrene: 31091 1/M × cm. […]

[2] = tested on: glucose carrier in human erythrocytes; details: cited from earlier work
[3] = tested on: Mycobacterium smegmatis (ATCC 7000084); test: Serial dilution assay (MIC), M. smegmatis; assay type: cell-based; details: Mycolicibacterium smegmatis, ATCC7000084; growth inhibition at 24 h; read-out: minimum inhibitory concentration (MIC) against M. smegmatis
Procedure: (§1) Serial dilutions of compounds were prepared as triplicates in sterile U-bottom-shaped 96-well plates (Corning, USA). Mueller-Hinton broth (MHB) medium was used for bacteria, and YMG medium was used for filamentous fungi and yeasts. The selected organisms represent a broad spectrum of pathogens of clinical interest, as well as sensitive indicator strains (Gram-positive bacteria: Bacillus subtilis (DSM 10), Staphylococcus aureus (DSM 346), Mycobacterium smegmatis (ATCC 7000084); Gram-negative bacteria: Acinetobacter baumannii (DSM 30008), Chromobacterium violaceum (DSM 30191), Escherichia coli (DSM 1116), Pseudomonas aeruginosa (PA 14); fungi and yeast: Schizosaccharomyces pombe (DSM 70572), Pichia anomala (DSM 6766), Mucor hiemalis (DSM 2656), Candida albicans (DSM 1665), Rhodotorula glutinis (DSM 10134)).
(§2) The compounds were dissolved in MeOH (1 mg/mL), added to the bacterial suspension, and diluted to the final concentrations. The plate was incubated at 37 °C under static conditions. Growth inhibition was assessed at 24 h. MeOH was used as negative control. […]

[4] = tested on: Schizosaccharomyces pombe (DSM 70572); test: Serial dilution assay (MIC), S. pombe; assay type: cell-based; details: DSM70572, growth inhibition at 24 h, read-out: MIC against S. pombe
Procedure: as §1, §2

| Structure (SMILES) | relative actin polymerization rate [1] | binding to site I of the glucose carrier ([2]; human erythrocyte membranes ref 30) | inhibition of glucose transport ([2]; human erythrocytes ref 29, 30) | MIC [3] [µg/mL] | MIC [4] [µg/mL] |
| --- | --- | --- | --- | --- | --- |
| C=C1[C@@H](C)[C@H]2[C@H](Cc3ccccc3)NC(=O)[C@]23OC(=O)/C=C/[C@H](O)CCC[C@@H](C)C/C=C/[C@H]3[C@@H]1OC(C)=O [Compound 3, 7-O-acetyl cytochalasin B] | 107% | able to bind site I | inhibits glucose transport | 66.6 (≈ 128 µM) |  |
| C=C1[C@@H](C)[C@H]2[C@H](Cc3ccccc3)N(C(C)=O)C(=O)[C@]23OC(=O)/C=C/[C@H](O)CCC[C@@H](C)C/C=C/[C@H]3[C@@H]1O [Compound 5, N-acetyl cytochalasin B] | 86% and 84–86% |  |  |  |  |
| C=C1[C@@H](C)[C@H]2[C@H](Cc3ccccc3)NC(=O)[C@]23OC(=O)/C=C/[C@H](OC(C)=O)CCC[C@@H](C)C/C=C/[C@H]3[C@@H]1O [Compound 6, 20-O-acetyl cytochalasin B] | 58% |  |  |  | 33.3 (≈ 63.8 µM) |
